Source: patent publication US4649157A, “Pharmaceutical compositions containing 5-phenyl-1,3-dioxoalkenyl compounds” (G. D. Searle & Co., priority 1986, dated 1987)

Each molecule was assayed on Leukotriene C4 (LTC4) and leukotriene D4 (LTD4) biosynthesis by cultured rat basophilic leukemia cells (RBL-1 cells) (assay: Inhibition of leukotriene biosynthesis (LTC4 and LTD4, ionophore-induced) in cultured RBL-1 cells, quantitated by radioimmunoassay). Details: LTC4 equivalents by [3H]-RIA.
Assay type: cell-based
Protocol: Leukotriene C4 (LTC4) and leukotriene D4 (LTD4) biosynthesis by cultured rat basophilic leukemia cells (RBL-1 cells) was induced by incubation of the cells with an ionophore. See B. A. Jakschik, S. Falkenheim, and C. W. Parker, "Precursor Role of Arachidonic Acid in Release of Slow Reacting Substance from Rat Basophilic Leukemia Cells," Proc Natl. Acad. Sci. U.S.A., 74, 4577-4581 (1977). The LTC4 and LTD4 biosynthesis was quantitated at LTC4 equivalents by radioimmunoassay using the Leukotriene C4 [^3 H]-RIA Kit available commercially from New England Nuclear, 549 Albany Street, Boston, Mass. Compounds were screened initially at 10^-4 M or 10^-5 M and compared with nordihydroguaiaretic acid (the reference standard). A compound inhibiting leukotriene synthesis at any given concentration by at least 30% relative to the reference standard was considered active. […] Table A lists IC50 's for representative compounds of this invention.

Structure (SMILES) | IC50 [µM]
CCOC(=O)CC(=O)C=Cc1ccc(OC)cc1 [Example 23, ethyl 5-(4-methoxyphenyl)-3-oxo-4-pentenoate] | 67
CCOC(=O)CC(=O)C=Cc1cccc2ccccc12 [Example 27, ethyl 5-(1-naphthyl)-3-oxo-4-pentenoate] | 27.2
CCOC(=O)CC(=O)C=Cc1cccc(Oc2ccccc2)c1 [Example 20, ethyl 3-oxo-5-(3-phenoxyphenyl)-4-pentenoate] | 27
CCOC(=O)CC(=O)C=Cc1cccc(Oc2ccc(Cl)cc2)c1 [Example 21, ethyl 5-[3-(4-chlorophenoxy)phenyl]-3-oxo-4-pentenoate] | 26.5
CCOC(=O)CC(=O)C=Cc1ccccc1 [Example 1, ethyl 3-oxo-5-phenyl-4-pentenoate] | 20
